Test in all cases: inhibition of tumour cell growth, NCI panel, 48 h
In test [1] the test system is 786-0.
Test [2] relates to U-251.
Test [3] relates to M14.
For test [4], the system named is NCI-H226.
The subject of test [5] is SN12C.
Test [6] deals with HCC 2998.
Test [7] deals with NCI-H522.
Test [8] concerns SF-539.
For test [9], the system named is HCT-116.
Test [10] relates to SK-MEL-28.
The subject of test [11] is MDA-N.
Test [12] has as its system OVCAR-8.
Test [13] deals with MDA-MB-231.
Test [14] concerns SK-OV-3.
The test system of test [15] is MCF7.
For test [16], the system named is Malme-3M.
The subject of test [17] is Hs-578T.
The test system of test [18] is A549.
Test [19] relates to NCI-H460.
The subject of test [20] is KM12.

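Growth conditions: 96-well plates. Treatment: test compound, 48 hours, 5 concentrations. Analysis: linear interpolation between bracketing concentrations; unreached endpoints set to highest concentration. GI50 is the concentration that inhibits growth by half.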 Active and inactive are the calls of the source. Rule as the data show it: active = GI50 up to about 1.1 µM and inactive = higher.

`c1ccc(C[N+]23CN4CN(CN(C4)C2)C3)cc1`: the GI50 in test [1] is 21.1 µM (inactive); in test [2], 18.4 µM (inactive); in test [3], 19.7 µM (inactive); in [4], > 100 µM (inactive); in test [5], 53.2 µM (inactive); in test [6] it was 20.4 µM (inactive). In addition, the GI50 in test [7] was > 100 µM (inactive); in test [8] it was 28.6 µM (inactive); in test [9] it was 27.7 µM (inactive); in [10] it was 26.7 µM (inactive); in test [11], 94.4 µM (inactive); in test [12] it was 30.1 µM (inactive). Moreover, the GI50 in [13] is 20.1 µM (inactive); in [14], > 100 µM (inactive); in test [15] it was 30.1 µM (inactive); in [16] it was 57.7 µM (inactive); in [17] it was > 100 µM (inactive); in test [18] it was 29.2 µM (inactive). The GI50 in test [19] was 38.2 µM (inactive); in [20] it was 33.2 µM (inactive).

In the case of `COC1/C=C/C(C)C(O)CC(O)/C=C/C(C)C(C(C)C(OC)C(C)CCC(=O)C(C)C(C/C=C/N(C)C=O)OC)OC(=O)/C=C/C=C(\C)CC(OC)CC2=CC(=O)O[C@@H](C(C)C(OC)C1)[C@H]2O` (stereo not given in full), the GI50 in test [1], in test [2], in test [3], in test [4], in test [5] and in test [6] was < 0.005 µM (active) in each case. Besides, the GI50 in test [7] was < 0.005 µM (active); in test [8], < 0.005 µM (active); in test [9] it was < 0.005 µM (active); in [10] it was 0.00588 µM (active); in test [11], < 0.005 µM (active); in test [12] it was < 0.005 µM (active). For the same compound, the GI50 in test [13] is < 0.005 µM (active); in test [14], < 0.005 µM (active); in test [15], 0.00522 µM (active); in test [16] it was < 0.005 µM (active); in [17], 0.00879 µM (active); in test [18], 0.00507 µM (active). Moreover, the GI50 in test [19] and in test [20] was < 0.005 µM (active) in each case.

For `CN(C)c1n/c(=N/Cc2ccncc2)ss1`, the GI50 in test [1] was 17.4 µM (inactive); in [2], 17.9 µM (inactive); in test [3], 16.8 µM (inactive); in [4] it was > 100 µM (inactive); in test [5], 19.6 µM (inactive); in [6], > 52.6 µM (inactive). Moreover, the GI50 in test [7] is 16.1 µM (inactive); in test [8], > 46.9 µM (inactive); in test [9], 20.5 µM (inactive); in test [10], 36.8 µM (inactive); in [11] it was 21.7 µM (inactive); in test [12] it was 17.6 µM (inactive). The GI50 is 37.8 µM (inactive) in test [13]; > 40 µM (inactive) in test [14]; 61 µM (inactive) in [15]; 18.5 µM (inactive) in [16]; 23.6 µM (inactive) in test [17]; > 10 µM (inactive) in test [18]. For the same compound, the GI50 in test [19] is > 100 µM (inactive); in test [20], > 10 µM (inactive).

As to `O=c1[nH]c(=O)n([C@@H]2O[C@H](CO)[C@@H](O)[C@@H]2F)cc1I` [FIALURIDINE], the GI50 in test [1] is > 100 µM (inactive); in [2], > 100 µM (inactive); in test [3], 77.6 µM (inactive); in test [4], > 100 µM (inactive); in [5], > 100 µM (inactive); in [6] it was > 100 µM (inactive). The GI50 in test [7], in test [8], in test [9], in test [10], in [11] and in test [12] was > 100 µM (inactive) each time. Also, the GI50 is > 100 µM (inactive) in [13]; > 100 µM (inactive) in test [14]; 67.6 µM (inactive) in test [15]; > 100 µM (inactive) in test [16]; > 100 µM (inactive) in [17]; 44.2 µM (inactive) in test [18]. Besides, the GI50 in test [19] was 24 µM (inactive); in test [20], > 100 µM (inactive).
